Assay type in all cases: functional
The target of test [1] is Protein disulfide-isomerase (Homo sapiens, UniProt P07237). As to the kind of experiment: PDI inhibitors, insulin aggregation turbidity, dose response, biochemical, absorbance, cherry-picked samples (AID 602350).
Test [2] has as its target T1, Caspase-3 (Homo sapiens, UniProt P42574).
T1 sequence (P42574 whole entry): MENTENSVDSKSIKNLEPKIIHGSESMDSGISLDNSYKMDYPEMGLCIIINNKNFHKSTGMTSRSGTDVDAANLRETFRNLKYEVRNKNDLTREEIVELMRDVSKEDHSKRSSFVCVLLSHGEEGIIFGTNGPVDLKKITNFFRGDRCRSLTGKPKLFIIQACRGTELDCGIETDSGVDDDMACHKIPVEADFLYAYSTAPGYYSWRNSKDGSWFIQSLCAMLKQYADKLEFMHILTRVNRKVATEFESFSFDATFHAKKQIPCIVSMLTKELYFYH
Description: caspase-3 inhibitors as off-family protease, SAR follow-up, selectivity assay for SENP protease inhibitor project, biochemical, luminescence, set 2 (AID 588599).

In test [3] the target is T2, Sentrin-specific protease 6 (Homo sapiens, UniProt Q9GZR1).
T2 sequence (Q9GZR1 whole entry): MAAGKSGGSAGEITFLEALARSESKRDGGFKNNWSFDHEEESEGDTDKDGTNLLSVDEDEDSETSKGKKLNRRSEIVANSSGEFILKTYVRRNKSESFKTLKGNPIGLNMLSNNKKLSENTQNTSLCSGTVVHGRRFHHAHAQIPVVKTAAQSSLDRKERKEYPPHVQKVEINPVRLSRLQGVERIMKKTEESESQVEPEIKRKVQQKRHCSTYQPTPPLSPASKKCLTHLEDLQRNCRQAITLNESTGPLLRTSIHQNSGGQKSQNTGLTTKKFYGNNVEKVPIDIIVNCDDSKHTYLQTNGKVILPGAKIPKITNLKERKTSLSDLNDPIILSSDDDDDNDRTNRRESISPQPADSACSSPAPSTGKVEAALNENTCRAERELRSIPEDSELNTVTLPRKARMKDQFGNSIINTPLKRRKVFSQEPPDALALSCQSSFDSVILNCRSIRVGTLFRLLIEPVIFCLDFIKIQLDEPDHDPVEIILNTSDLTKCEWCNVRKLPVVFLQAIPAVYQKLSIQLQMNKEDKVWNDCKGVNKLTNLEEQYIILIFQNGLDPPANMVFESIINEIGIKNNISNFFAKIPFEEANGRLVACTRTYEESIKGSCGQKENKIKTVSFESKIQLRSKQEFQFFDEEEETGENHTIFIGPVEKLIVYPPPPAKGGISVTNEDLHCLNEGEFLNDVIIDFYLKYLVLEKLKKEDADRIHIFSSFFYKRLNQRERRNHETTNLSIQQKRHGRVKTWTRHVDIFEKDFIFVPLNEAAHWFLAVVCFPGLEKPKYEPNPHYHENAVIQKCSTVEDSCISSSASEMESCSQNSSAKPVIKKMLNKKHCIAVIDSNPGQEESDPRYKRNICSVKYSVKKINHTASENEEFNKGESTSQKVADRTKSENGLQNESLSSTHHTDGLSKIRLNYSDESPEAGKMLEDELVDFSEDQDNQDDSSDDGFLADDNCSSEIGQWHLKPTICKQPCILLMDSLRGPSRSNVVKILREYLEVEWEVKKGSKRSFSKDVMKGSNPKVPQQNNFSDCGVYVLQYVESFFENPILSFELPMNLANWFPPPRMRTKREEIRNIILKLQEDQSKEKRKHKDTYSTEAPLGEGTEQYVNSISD
As to the kind of experiment: SAR Analysis of small molecule inhibitors of Sentrin-specific protease 6 (SENP6) using a Luminescent assay. [Related pubchem assays (depositor defined):AID2582, AID2599].

The target in test [4] is T2, Sentrin-specific protease 6. As to the kind of experiment: SENP6 protease inhibitors, SAR follow-up, biochemical, luminescence, set 2 (AID 588598).
Test [5] deals with T3, Sentrin-specific protease 7 (Homo sapiens, UniProt Q9BQF6).
T3 sequence (Q9BQF6 whole entry): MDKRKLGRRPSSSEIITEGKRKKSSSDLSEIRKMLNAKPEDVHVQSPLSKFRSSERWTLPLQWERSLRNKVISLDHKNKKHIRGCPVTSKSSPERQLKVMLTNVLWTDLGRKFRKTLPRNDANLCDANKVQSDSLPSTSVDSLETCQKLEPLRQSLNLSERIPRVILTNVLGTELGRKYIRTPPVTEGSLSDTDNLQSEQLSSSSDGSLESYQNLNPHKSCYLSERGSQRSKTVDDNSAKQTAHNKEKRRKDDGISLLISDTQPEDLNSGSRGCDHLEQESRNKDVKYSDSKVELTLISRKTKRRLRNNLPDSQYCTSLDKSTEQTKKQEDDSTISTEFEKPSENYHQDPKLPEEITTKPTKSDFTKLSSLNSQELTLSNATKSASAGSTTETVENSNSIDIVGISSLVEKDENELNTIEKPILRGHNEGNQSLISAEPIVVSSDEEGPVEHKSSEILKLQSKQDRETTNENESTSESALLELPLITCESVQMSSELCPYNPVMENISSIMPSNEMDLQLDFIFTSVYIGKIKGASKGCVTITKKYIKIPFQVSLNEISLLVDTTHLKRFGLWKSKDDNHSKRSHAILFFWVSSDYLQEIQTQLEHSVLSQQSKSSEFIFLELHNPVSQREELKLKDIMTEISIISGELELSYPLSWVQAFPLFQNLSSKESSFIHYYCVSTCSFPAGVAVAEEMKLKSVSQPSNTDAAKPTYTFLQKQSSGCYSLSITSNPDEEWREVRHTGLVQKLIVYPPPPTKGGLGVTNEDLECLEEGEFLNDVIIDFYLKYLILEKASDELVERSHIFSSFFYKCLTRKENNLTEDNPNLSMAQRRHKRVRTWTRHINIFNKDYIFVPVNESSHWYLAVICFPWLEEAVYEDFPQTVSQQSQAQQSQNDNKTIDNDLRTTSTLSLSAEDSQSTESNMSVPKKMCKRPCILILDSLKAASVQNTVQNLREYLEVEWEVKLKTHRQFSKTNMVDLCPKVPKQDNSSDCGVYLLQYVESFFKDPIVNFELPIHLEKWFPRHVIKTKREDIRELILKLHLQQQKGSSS
Description: SENP7 protease inhibitors, SAR follow-up, biochemical, luminescence, set 2 (AID 588600).

The target in test [6] is T3, Sentrin-specific protease 7. Description: SENP7 protease inhibitors, SAR follow-up, biochemical, luminescence (AID 504497).
Test [7] concerns the target T1, Caspase-3. As to the kind of experiment: SAR Analysis of small molecule inhibitors of Sentrin-specific proteases (SENPs) using a Caspase-3 Selectivity assay. [Related pubchem assays (depositor defined):AID2540, AID2599, AID434973, AID489001].
Test [8] addresses T4, Sentrin-specific protease 8 (Homo sapiens, UniProt Q96LD8).
T4 sequence (Q96LD8 whole entry): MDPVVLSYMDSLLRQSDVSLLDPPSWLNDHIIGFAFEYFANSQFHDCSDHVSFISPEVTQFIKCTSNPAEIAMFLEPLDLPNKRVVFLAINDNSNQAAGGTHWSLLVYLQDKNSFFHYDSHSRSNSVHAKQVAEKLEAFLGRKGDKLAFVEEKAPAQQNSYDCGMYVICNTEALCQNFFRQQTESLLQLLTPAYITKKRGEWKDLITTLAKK
Description: SENP8 protease inhibitors, SAR follow-up, biochemical, luminescence (AID 504501).

The target of test [9] is T4, Sentrin-specific protease 8. Description: SENP8 protease inhibitors, SAR follow-up, biochemical, luminescence, set 2 (AID 588601).
In test [10] the target is Apoptotic protease-activating factor 1 (Homo sapiens, UniProt O14727). As to the kind of experiment: SAR analysis of small molecule Activators of Apaf-1 in a Fluorescent assay. Conditions: read-out: EC50_Mean.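 Note: caspase-3 cleavage of fluorogenic Rh110 DEVD substrate downstream of apoptosome activation.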
Test [11] can be described thus: AlphaScreen signal interference compounds, dose response, artefact control for ARNT-TACC3 interaction inhibitor project, biochemical, luminescence, cherry-pick (AID 651705).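 Note: AlphaScreen bead proximity signal that flags compounds interfering with the detection technology; potency reflects signal decrease which marks the compound as an assay artifact.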

Several values for one entry are separate records, joined by “and”; a condition that tells them apart may be missing. Equal values may be shown once. Activity calls are given as the source filed them. Cut-off read from the data, not from the text of the source, for most assays here: actives have a measured IC50 and inactives only a lower limit. Bounds are passed on as bounds.

Results on six compounds are retold here after ChEMBL document CHEMBL1201862, “PubChem BioAssay data set” (2004).

As a reminder, the AC50 is the concentration at which the activity in the assay is half-maximal. What is called IC50 is the midpoint of a concentration-inhibition curve.

Sequence of Protein disulfide-isomerase (P07237 whole entry): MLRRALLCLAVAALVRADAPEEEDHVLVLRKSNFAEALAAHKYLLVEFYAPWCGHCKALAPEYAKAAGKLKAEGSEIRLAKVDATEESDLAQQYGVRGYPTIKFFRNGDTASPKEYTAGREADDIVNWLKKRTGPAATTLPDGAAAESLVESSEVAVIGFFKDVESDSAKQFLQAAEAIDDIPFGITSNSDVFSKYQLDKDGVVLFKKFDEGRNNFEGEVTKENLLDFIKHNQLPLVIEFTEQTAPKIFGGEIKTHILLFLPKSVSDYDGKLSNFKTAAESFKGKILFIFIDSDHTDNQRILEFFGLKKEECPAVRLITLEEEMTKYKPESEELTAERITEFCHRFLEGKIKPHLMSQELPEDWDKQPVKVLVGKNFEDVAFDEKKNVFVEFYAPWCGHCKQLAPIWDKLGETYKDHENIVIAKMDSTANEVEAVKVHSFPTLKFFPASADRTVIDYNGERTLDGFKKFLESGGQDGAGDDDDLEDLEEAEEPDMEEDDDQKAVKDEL
Sequence of Apoptotic protease-activating factor 1 (O14727 whole entry): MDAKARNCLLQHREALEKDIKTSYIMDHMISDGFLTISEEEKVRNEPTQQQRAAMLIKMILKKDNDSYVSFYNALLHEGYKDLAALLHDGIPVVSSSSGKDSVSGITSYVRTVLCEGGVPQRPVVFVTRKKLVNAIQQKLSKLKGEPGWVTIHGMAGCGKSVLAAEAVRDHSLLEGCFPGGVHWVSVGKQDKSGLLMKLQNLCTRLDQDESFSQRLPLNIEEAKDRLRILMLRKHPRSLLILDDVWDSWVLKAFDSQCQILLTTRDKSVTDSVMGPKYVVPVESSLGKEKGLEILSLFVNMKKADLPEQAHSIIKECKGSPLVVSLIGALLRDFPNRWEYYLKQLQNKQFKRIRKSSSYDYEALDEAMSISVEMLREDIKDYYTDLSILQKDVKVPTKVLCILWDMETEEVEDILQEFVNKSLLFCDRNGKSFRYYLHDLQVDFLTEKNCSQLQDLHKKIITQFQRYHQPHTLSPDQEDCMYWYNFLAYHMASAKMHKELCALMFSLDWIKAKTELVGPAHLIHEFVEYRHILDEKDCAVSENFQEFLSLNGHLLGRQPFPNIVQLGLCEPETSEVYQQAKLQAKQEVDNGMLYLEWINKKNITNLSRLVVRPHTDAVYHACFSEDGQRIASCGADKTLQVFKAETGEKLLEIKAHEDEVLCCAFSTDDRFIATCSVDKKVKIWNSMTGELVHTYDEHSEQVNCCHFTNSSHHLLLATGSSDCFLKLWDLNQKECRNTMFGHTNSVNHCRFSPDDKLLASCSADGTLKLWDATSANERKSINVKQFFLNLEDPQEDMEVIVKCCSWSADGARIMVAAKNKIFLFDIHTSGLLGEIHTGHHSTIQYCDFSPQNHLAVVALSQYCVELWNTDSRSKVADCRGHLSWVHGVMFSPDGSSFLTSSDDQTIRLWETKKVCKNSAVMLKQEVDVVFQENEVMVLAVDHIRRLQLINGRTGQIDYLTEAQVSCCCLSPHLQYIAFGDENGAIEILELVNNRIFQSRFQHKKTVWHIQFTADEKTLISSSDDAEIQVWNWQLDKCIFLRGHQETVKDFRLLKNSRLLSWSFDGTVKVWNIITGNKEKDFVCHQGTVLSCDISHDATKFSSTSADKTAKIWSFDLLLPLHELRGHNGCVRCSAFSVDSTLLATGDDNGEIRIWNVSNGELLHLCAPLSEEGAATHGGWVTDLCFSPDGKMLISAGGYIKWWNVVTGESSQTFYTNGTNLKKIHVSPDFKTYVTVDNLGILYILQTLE

`C[C@@H]1CN([C@@H](C)CO)C(=O)c2cccc(NS(C)(=O)=O)c2O[C@H]1CN(C)Cc1ccc(Oc2ccccc2)cc1`: the AC50 in test [1] was 19.5 µM (active) and 7.04 µM (active).
As for `CCN(CC)c1ccc(/C=C/c2noc(-c3ccccc3O)n2)cc1`, the IC50 at Caspase-3 [2] was > 99 µM (inactive); in [3], 35 µM (active); in test [4], 30.7 µM (active); in test [5], > 99 µM (inactive); in [6], 14 µM (active); at Caspase-3 [7], 48 µM (active). Besides, the values for the IC50 in test [8] and in [9] were 43 µM (active) and > 99 µM (inactive), respectively.
Take `CCOc1cc(/C=C(/C#N)c2nc(-c3ccc(C)cc3)no2)cc(Cl)c1O`: the IC50 (at Caspase-3 [2]; in [4]; in test [5]; in test [9]) was > 99 µM (inactive) each time.
For the compound `C[C@H](CO)N1C[C@H](C)[C@H](CN(C)Cc2ccccc2)Oc2ccc(NC(=O)Nc3ccccc3)cc2CC1=O`, the AC50 in test [1] was 19.5 µM (active).
In the case of `Cc1cc(C)n(C(C)CC(=O)Nc2cccnc2)n1` (stereo unspecified), the EC50 in test [10] was > 100 µM (inactive).
Regarding `CCCCCC/C=N/Nc1nnc(Cc2ccc(OC)c(OC)c2)c(O)n1`, the AC50 in test [11] was 132 µM (active).
